Measured values: ChEMBL document CHEMBL5223140, “Highly potent anti-inflammatory, analgesic and antioxidant activities of 3,5-disubstituted tetrahydro-2H-1,3,5-thiadiazine thiones” (Bioorg Med Chem Lett, 2023)

Legend:
Type in all cases: functional
[1] = species on record: Homo sapiens; test: Antiinflammatory activity against human blood incubated for 15 mins by thermostatic luminometric chemiluminescence based oxidative burst assay
[2] = Antioxidant activity assessed as DPPH radical scavenging activity incubated for 30 mins by spectrophotometric analysis
[3] = test system: Mus musculus; test: Analgesic activity against acetic acid induced mouse model assessed as number of writhes at 5 mg/kg, po administrated for 30 mins followed by acetic acid addition and measured after 20 mins by abdominal constriction test; settings: time 50 min
[4] = test system: Mus musculus; test: Analgesic activity against acetic acid induced mouse model assessed as reduction in writhing at 5 mg/kg, po administrated for 30 mins followed by acetic acid addition and measured after 20 mins by abdominal constriction test; design: scale not given: the % may be the effect or the level left; settings: time 50 min
[5] = test system: Mus musculus; test: Analgesic activity against acetic acid induced mouse model assessed as number of writhes at 10 mg/kg, po administrated for 30 mins followed by acetic acid addition and measured after 20 mins by abdominal constriction test; settings: time 50 min
[6] = test system: Mus musculus; test: Analgesic activity against acetic acid induced mouse model assessed as reduction in writhing at 10 mg/kg, po administrated for 30 mins followed by acetic acid addition and measured after 20 mins by abdominal constriction test; design: scale not given: the % may be the effect or the level left; settings: time 50 min
[7] = Homo sapiens, Blood, 0.25 h, read-out: IC50

CCCCN1CSC(=S)N(CC(=O)O)C1
IC50 [1]: Not Active

CCCN1CN(CC(=O)OCC)CSC1=S
IC50 [1, 7]: 7.1 µM | IC50 [2]: 87.5 µM | Activity [3]: 29.25 | Activity [4]: 32.05%

CCN1CSC(=S)N(C(C)c2ccccc2)C1 (racemic)
IC50 [1, 7]: > 100 µM | IC50 [2]: 61.2 µM

CC(c1ccccc1)N1CN(CC(=O)O)CSC1=S (racemic)
IC50 [1, 7]: 38.5 µM | IC50 [2]: 67.7 µM

CCCN1CSC(=S)N(CC(=O)O)C1
IC50 [1, 7]: 39.7 µM | IC50 [2]: 93.6 µM

CC(C)Cc1ccc(C(C)C(=O)O)cc1 (stereo unspecified) [IBUPROFEN]
IC50 [1, 7]: 11.2 µM

CCCCN1CN(CC(=O)O)CSC1=S
IC50 [1]: Not Active

CCN1CSC(=S)N(CC)C1
IC50 [1, 7]: 5.1 µM | Activity [3]: 40.21 | Activity [4]: 6.97%

CCCN1CN(CC(=O)OC)CSC1=S
IC50 [1, 7]: 32.4 µM

CC(C)N1CN(CC(=O)O)CSC1=S
IC50 [1]: Not Active | IC50 [2]: 87.5 µM

CCCCN1CSC(=S)N(C(C)c2ccccc2)C1 (racemic)
IC50 [1, 7]: > 100 µM

COc1ccc(CN2CN(CC(=O)O)CSC2=S)cc1OC
IC50 [1, 7]: > 100 µM | IC50 [2]: 81.4 µM

CCN1CSC(=S)N(CC(=O)O)C1
IC50 [1]: Not Active

CCCN1CSC(=S)N(C(C)c2ccccc2)C1 (racemic)
IC50 [1, 7]: 16.9 µM | IC50 [2]: 69.9 µM

O=C(O)CN1CN(CCO)CSC1=S
IC50 [1]: Not Active | IC50 [2]: 74.6 µM

CCN1CN(CC(=O)O)CSC1=S
IC50 [1]: Not Active

C[C@H](c1ccccc1)N1CSC(=S)N([C@H](C)c2ccccc2)C1
IC50 [2]: 65.9 µM | Activity [3]: 39 | Activity [4]: 9.3%

CC(C)N1CSC(=S)N(C(C)c2ccccc2)C1 (racemic)
IC50 [1, 7]: 7.5 µM | IC50 [2]: 78.9 µM | Activity [3]: 41.35 | Activity [4]: 4.65%

CC(c1ccccc1)N1CN(CCO)CSC1=S (racemic)
IC50 [1]: Not Active | IC50 [2]: 77.5 µM

C[C@@H](c1ccccc1)N1CSC(=S)N([C@@H](C)c2ccccc2)C1
IC50 [2]: 69.9 µM | Activity [3]: 35 | Activity [4]: 18.6%

CCCN1CN(CC(=O)O)CSC1=S
IC50 [1, 7]: 23.8 µM | IC50 [2]: 76.8 µM

CCCN1CN(CC(=O)OCc2ccccc2)CSC1=S
IC50 [1, 7]: 4.1 µM

COc1ccc2c(c1)c(CC(=O)O)c(C)n2C(=O)c1ccc(Cl)cc1 [INDOMETHACIN]
Activity [5]: 22.88 | Activity [6]: 48.83%

CCCCN1CN(CC(=O)OCC)CSC1=S
IC50 [1, 7]: 14.4 µM
